Measured values published in ChEMBL document CHEMBL3124747, “Formosusin A, a novel specific inhibitor of mammalian DNA polymerase β from the fungus Paecilomyces formosus” (Bioorg Med Chem, 2014).

What was measured:
DNA polymerase beta [1] = target: T1, DNA polymerase beta (Rattus norvegicus, UniProt P06766); test: Competitive inhibition of recombinant rat DNA polymerase beta using poly(dA)/oligo(dT)18 as substrate by Lineweaver-Burk plot analysis
DNA polymerase beta [2] = target: T1, DNA polymerase beta; test: Noncompetitive inhibition of recombinant rat DNA polymerase beta using dTTP as substrate by Lineweaver-Burk plot analysis
DNA polymerase eta = target: T2, DNA polymerase eta (Homo sapiens, UniProt Q9Y253); test: Inhibition of C-terminal His-6-tagged human DNA polymerase eta expressed in Escherichia coli assessed as inhibition of incorporation of dTTP into poly(dA)/oligo(dT)18 after 60 mins
T2 sequence (Q9Y253 whole entry): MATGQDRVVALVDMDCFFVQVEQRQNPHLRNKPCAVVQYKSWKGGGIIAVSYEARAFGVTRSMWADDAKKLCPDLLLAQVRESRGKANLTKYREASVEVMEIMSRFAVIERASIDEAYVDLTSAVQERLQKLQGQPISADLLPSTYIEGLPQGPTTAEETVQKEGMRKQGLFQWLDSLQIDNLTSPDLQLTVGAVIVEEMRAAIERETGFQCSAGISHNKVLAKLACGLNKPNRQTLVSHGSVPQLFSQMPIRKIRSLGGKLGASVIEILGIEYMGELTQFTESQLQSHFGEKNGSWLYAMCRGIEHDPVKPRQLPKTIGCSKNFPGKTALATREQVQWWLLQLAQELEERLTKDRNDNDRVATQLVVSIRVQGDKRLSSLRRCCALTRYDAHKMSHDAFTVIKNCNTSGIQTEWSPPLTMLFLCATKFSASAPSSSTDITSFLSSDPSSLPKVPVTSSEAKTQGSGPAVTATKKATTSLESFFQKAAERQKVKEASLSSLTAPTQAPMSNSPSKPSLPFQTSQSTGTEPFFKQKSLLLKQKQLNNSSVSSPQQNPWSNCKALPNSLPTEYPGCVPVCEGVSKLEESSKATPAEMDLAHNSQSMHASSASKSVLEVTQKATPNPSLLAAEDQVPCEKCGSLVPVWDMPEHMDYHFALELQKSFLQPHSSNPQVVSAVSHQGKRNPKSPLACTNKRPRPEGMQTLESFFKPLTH

[3] = target: DNA polymerase beta (Rattus norvegicus) (UniProt P06766); test: Inhibition of recombinant rat DNA polymerase beta expressed in Escherichia coli JMpbeta5 assessed as inhibition of incorporation of dTTP into poly(dA)/oligo(dT)18 after 60 mins

Structure (SMILES) | Ki (DNA polymerase beta [1]) [µM] | Ki (DNA polymerase beta [2]) [µM] | IC50 (DNA polymerase eta) [µM] | inhibition [3]
CCCC[C@@H](O)/C=C(C)/C=C/C=C\C(=O)N1CCCC1=O | 5.5 | 11.6 | > 200 | Dose-dependent effect
CCCC[C@@H](O)/C=C(C)/C=C/C=C/C(=O)N1CCCC1=O [PECILOCIN] | – | – | > 200 | –
CC(/C=C/CCC(=O)N1CCCC1=O)=C\C1CCCCO1 (configuration not stated) | – | – | > 200 | –
CCCCC(=O)/C=C(C)/C=C/CCC(=O)N1CCCC1=O | – | – | > 200 | –
